Results published in patent publication US20160136284A1, “GLIOMA TREATMENT” (priority 2012, published 2016).
“Also recorded” adds a separate entry of the source.

Test: Carboplatin toxicity in rat brain after CED (clinical, H&E, GFAP, DiI)
Assay type: in vivo
Method: Male Wistar rats (Charles River, UK) were group-housed and allowed to acclimatise prior to experimental procedures. Rats weighing 225 to 275 g were anaesthetised with an intraperitoneal dose of medetomidine (Dormitor; 0.4 mg/kg; Pfizer Animal Health, Kent, UK) and ketamine (Ketaset; 100 mg/kg; Pfizer, UK) and placed in a stereotactic frame (Stoelting Co, Wood Dale, Ill. USA). A linear incision was made between the glabella and the occiput and the skull exposed. Burr holes with a diameter of approximately 2 mm were drilled 1.0 mm anterior and 2.5 mm lateral to the bregma and cannulae were inserted to a depth of 2.5 mm below the dura. All cannulae were pre-primed with either saline or carboplatin and the desired dose prior to insertion into the brain. Every attempt was made to ensure that no air bubbles were present in the infusion cannula. Infusions of 2.5 μl of carboplatin at specific concentrations (outlined in Table 1) were conducted at a rate of 5 μl/min. Following infusion completion, the cannula was left in-situ for 10 min before being withdrawn at a rate of 1 mm/min. The wound was then closed with 5.0 Vicryl (Ethicon, Gargrave, UK) a dose of intramuscular buprenorphine was administered (Vetergesic; 0.03 mg/kg; Alstoe Animal Health, York, UK) and the anaesthetic was reversed with an intraperitoneal dose of atipamezole hydrochloride (Antisedan; 5 mg/kg; Pfizer, UK). At predetermined time-points (see Table 1), animals were perfusion fixed with 100 mL of PBS followed by 100 mL of 4% paraformaldehyde (PFA; Fisher Scientific, UK) in PBS (pH 7.4). The brain was then removed from the skull and placed in 4% PFA for 48 hours and then cryoprotected in 30% sucrose (Melford Laboratories, Ipswich, UK) in PBS prior to sectioning.
Rat brains were cut into 35 μm thick coronal sections using a Leica CM1850 cryostat (Leica Microsystems, Wetzlar, Germany) at −20° C. For haematoxylin and eosin staining, fixed sections were mounted on gelatine-subbed slides. Sections were submerged in 4% PFA for 20 minutes, dehydrated and then stained with haematoxylin and eosin (Cell Path, Hemel Hempstead, UK) according to standard protocols. Following this, sections were coverslipped with Pertex mounting medium (Cell Path, UK) and allowed to dry in the fumehood overnight before imaging with a Leica CTR 5500 microscope (Leica Microsystems, Germany). Sections were assessed by light microscopy to ensure that the cannula track in each brain terminated in the corpus callosum.
For fluorescent immunohistochemistry, free-floating sections were washed with PBS for 5 min×3. Sections were then blocked in PBS plus 0.1% triton-x-100 (Sigma Aldrich, UK) containing 10% normal donkey serum (Sigma Aldrich, UK) for 1 hour at RT. Sections were then washed with PBS for 5 min. […]

[1] = up to 0.9 mg/ml, vs 0.9% saline

For `N.N.O=C([O-])C1(C(=O)[O-])CCC1.[Pt+2]` [carboplatin], the “histological tissue toxicity (haematoxylin and eosin)” value (0.03-0.9 mg/ml, up to 30 days) was “no histological evidence of tissue disruption; also recorded: No evidence of tissue toxicity”, the “clinical tolerability / toxicity” value (single CED infusions, concentrations of up to 0.9 mg/ml) was “well tolerated; also recorded: no clinical or histological evidence of toxicity” and the “gliosis in white matter (GFAP immunostaining)” value [1] was “minimal evidence of gliosis”. For the same molecule, the “white matter tract integrity (DiI staining)” value [1] was “no loss of white matter tract integrity”.
